Values quoted from earlier work as cited in PMC4306533, “Distinct Features of Cap Binding by eIF4E1b Proteins” (Journal of Molecular Biology, 2015).

Assays:
eIF4E1a = test system: eIF4E1a; set-up: method as in PMID 15317978; settings: cited from earlier work
[1] = test system: rabbit reticulocyte lysate system (RRL); settings: cited from earlier work
[2] = test system: lung, breast cancer and malignant mesothelioma cells; set-up: method as in PMID 23289910, PMID 24711125; settings: with gemcitabine or pemetrexed; cited from earlier work

SMILES | cap-binding affinity to eIF4E1a versus methylated counterpart (eIF4E1a) | inhibitory potency and translational efficiency compared with m^7GpppG [1] | effect on malignant phenotypes and chemosensitization [2]
Nc1nc2c(ncn2[C@@H]2O[C@H](COP(=O)(O)OP(=O)([O-])OP(=O)(O)OC[C@H]3O[C@@H]([n+]4cn(Cc5ccccc5)c5c(=O)[nH]c(N)nc54)[C@H](O)[C@@H]3O)[C@@H](O)[C@H]2O)c(=O)[nH]1 [bn^7GpppG] | no increase in cap-binding affinity to eIF4E1a was observed | higher inhibitory potency and translational efficiency | –
Nc1nc2c(ncn2[C@@H]2O[C@H](COP(=O)(O)OP(=O)(O)OP(=O)([O-])OP(=O)(O)OC[C@H]3O[C@@H]([n+]4cn(Cc5ccccc5)c5c(=O)[nH]c(N)nc54)[C@H](O)[C@@H]3O)[C@@H](O)[C@H]2O)c(=O)[nH]1 [bn^7GppppG] | no increase in cap-binding affinity to eIF4E1a was observed | – | –
Nc1nc2c(c(=O)[nH]1)[n+](Cc1ccccc1)cn2[C@@H]1O[C@H](COP(=O)(O)NCCc2c[nH]c3ccccc23)[C@@H](O)[C@H]1O [4Ei-1] | – | – | suppresses malignant phenotypes and chemosensitizes cells
COC1C(COP(=O)([O-])OP(=O)(O)OP(=O)(O)OCC2OC(n3cnc4c(=O)[nH]c(N)nc43)C(O)C2O)OC(n2c[n+](C)c3c(=O)[nH]c(N)nc32)C1O (centres unmarked) [m^7,3′OGpppG] | – | higher inhibitory potency and translational efficiency | –
